Measurements from patent US10414763B2 (CANCER RESEARCH TECHNOLOGY LIMITED, priority 2014, dated 2019).
pIC50: −log10 of the molar value.

Target: T1, full-length human PKCι (Homo sapiens, UniProt P41743)
T1 construct: Recombinant, full-length human PKCι expressed in Sf21 insect cells is also commercially available; purchased EMD Millipore; host or cells: Sf21 insect cells (baculovirus)
T1 sequence (P41743 1-596): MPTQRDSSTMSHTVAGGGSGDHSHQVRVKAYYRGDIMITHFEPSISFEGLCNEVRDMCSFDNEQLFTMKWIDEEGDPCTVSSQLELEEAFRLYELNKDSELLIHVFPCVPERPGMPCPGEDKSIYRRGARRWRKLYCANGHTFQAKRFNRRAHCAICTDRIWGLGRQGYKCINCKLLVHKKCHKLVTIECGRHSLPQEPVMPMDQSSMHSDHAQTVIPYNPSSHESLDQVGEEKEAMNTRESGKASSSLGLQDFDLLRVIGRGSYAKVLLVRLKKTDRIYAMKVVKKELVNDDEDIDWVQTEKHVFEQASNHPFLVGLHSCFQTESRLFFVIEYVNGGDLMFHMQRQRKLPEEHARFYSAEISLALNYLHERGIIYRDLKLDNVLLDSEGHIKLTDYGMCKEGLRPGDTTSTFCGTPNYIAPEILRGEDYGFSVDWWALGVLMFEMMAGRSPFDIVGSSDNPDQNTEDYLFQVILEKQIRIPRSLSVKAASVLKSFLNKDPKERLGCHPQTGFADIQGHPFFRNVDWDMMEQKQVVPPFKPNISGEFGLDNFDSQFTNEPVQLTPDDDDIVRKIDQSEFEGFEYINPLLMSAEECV
Assay: PKCι IC50 IMAP fluorescence polarisation assay, full-length enzyme, 150 μM ATP
Assay type: biochemical
Conditions: read-out: IC50 in IMAP assay against full length PKCi at 150 μM ATP
In short: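 IMAP fluorescence polarisation kinase assay: 15 pM baculovirus-expressed human PKCiota with 100 nM FAM-pseudosubstrate peptide and 150 μM ATP, 1 h at 25 °C. IMAP detection reagent then 2 h at 25 °C before FP measurement. Inhibition referenced to no-compound and no-enzyme controls for IC50 fitting.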

CC1(C)CNCC[C@H]1Nc1nc(-c2ccnc(Nc3nc(F)ccc3F)c2)nc2cncc(C3CC3)c12 [Example 157, {5-Cyclopropyl-2-[2-(3,6-difluoro-pyridin-2-ylamino)-pyridin-4-yl]-pyrido[3,4-d]pyrimidin-4-yl}-((R)-3,3-dimethyl-piperidin-4-yl)-amine]
pIC50: 6.00 to 7.00

CC1(C)CNCC[C@@H]1Nc1nc(-c2ccnc(Nc3nc(F)ccc3F)c2)nc2cncc(C3CC3)c12 [Example 158, {5-Cyclopropyl-2-[2-(3,6-difluoro-pyridin-2-ylamino)-pyridin-4-yl]-pyrido[3,4-d]pyrimidin-4-yl}-((S)-3,3-dimethyl-piperidin-4-yl)-amine]
pIC50: > 7.00

Fc1cc(F)c(Nc2cc(-c3nc(NC4CCCNCC4)c4c(C5CCC5)cncc4n3)ccn2)nc1F (centres unmarked) [Example 159, Azepan-4-yl-{5-cyclobutyl-2-[2-(3,5,6-trifluoro-pyridin-2-ylamino)-pyridin-4-yl]-pyrido[3,4-d]pyrimidin-4-yl}-amine]
pIC50: > 7.00

Fc1ccc(F)c(Nc2cc(-c3nc(NC4CCCNCC4)c4c(C5CCC5)cncc4n3)ccn2)n1 (centres unmarked) [Example 160, Azepan-4-yl-{5-cyclobutyl-2-[2-(3,6-difluoro-pyridin-2-ylamino)-pyridin-4-yl]-pyrido[3,4-d]pyrimidin-4-yl}-amine]
pIC50: > 7.00

CC1(C)CNCC[C@@H]1Nc1nc(-c2ccnc3[nH]c4ccccc4c23)nc2cncc(C3CCC3)c12 [Example 200]
pIC50: 6.00 to 7.00

Fc1cccc(Nc2cc(-c3nc(N4CCOC5CNCC54)c4c(C5CC5)cncc4n3)ccn2)n1 (centres unmarked) [Example 201, {4-[5-Cyclopropyl-4-(hexahydro-pyrrolo[3,4-b][1,4]oxazin-4-yl)-pyrido[3,4-d]pyrimidin-2-yl]-pyridin-2-yl}-(6-fluoro-pyridin-2-yl)-amine]
pIC50: > 7.00

Fc1cc(F)c(Nc2cc(-c3nc(N4CCOC5CNCC54)c4c(C5CC5)cncc4n3)ccn2)nc1F (centres unmarked) [Example 202, {4-[5-Cyclopropyl-4-(hexahydro-pyrrolo[3,4-b][1,4]oxazin-4-yl)-pyrido[3,4-d]pyrimidin-2-yl]-pyridin-2-yl}-(3,5,6-trifluoro-pyridin-2-yl)-amine]
pIC50: > 7.00

Fc1ccc(F)c(Nc2cc(-c3nc(N4CCOC5CNCC54)c4c(C5CC5)cncc4n3)ccn2)n1 (centres unmarked) [Example 203, {4-[5-Cyclopropyl-4-(hexahydro-pyrrolo[3,4-b][1,4]oxazin-4-yl)-pyrido[3,4-d]pyrimidin-2-yl]-pyridin-2-yl}-(3,6-difluoro-pyridin-2-yl)-amine]
pIC50: 6.00 to 7.00

CC(C)c1cc(C(C)C)c(S(=O)(=O)Oc2nc(-c3ccnc4[nH]c5ccccc5c34)nc3cncc(C4CCC4)c23)c(C(C)C)c1 [Example 204, 2,4,6-Triisopropyl-benzenesulfonic acid 5-cyclobutyl-2-(9H-pyrido[2,3-b]indol-4-yl)-pyrido[3,4-d]pyrimidin-4-yl ester]
pIC50: > 7.00

c1cc(-c2nc(N3CCNCC3)c3c(C4CC4)cncc3n2)cc(Nc2nc3n(n2)CCCC3)n1 [Example 205, [4-(5-Cyclopropyl-4-piperazin-1-yl-pyrido[3,4-d]pyrimidin-2-yl)-pyridin-2-yl]-(5,6,7,8-tetrahydro-[1,2,4]triazolo[1,5-a]pyridin-2-yl)-amine]
pIC50: > 7.00

c1ccc2c(c1)[nH]c1nccc(-c3nc(N4CCOC5CNCC54)c4c(C5CCC5)cncc4n3)c12 (centres unmarked) [Example 206, 4-[5-Cyclobutyl-4-(hexahydro-pyrrolo[3,4-b][1,4]oxazin-4-yl)-pyrido[3,4-d]pyrimidin-2-yl]-9H-pyrido[2,3-b]indole]
pIC50: > 7.00

Fc1cc(F)c(Nc2cc(-c3nc(NC45CCNCC4C5)c4c(C5CCC5)cncc4n3)ccn2)nc1F (centres unmarked) [Example 208, (3-Aza-bicyclo[4.1.0]hept-6-yl)-{5-cyclobutyl-2-[2-(3,5,6-trifluoro-pyridin-2-ylamino)-pyridin-4-yl]-pyrido[3,4-d]pyrimidin-4-yl}-amine]
pIC50: > 7.00

Fc1ccc(F)c(Nc2cc(-c3nc(NC45CCNCC4C5)c4c(C5CCC5)cncc4n3)ccn2)n1 (centres unmarked) [Example 209, (3-Aza-bicyclo[4.1.0]hept-6-yl)-{5-cyclobutyl-2-[2-(3,6-difluoro-pyridin-2-ylamino)-pyridin-4-yl]-pyrido[3,4-d]pyrimidin-4-yl}-amine]
pIC50: > 7.00

CC1(C)CNCC[C@@H]1Nc1nc(-c2ccnc(Nc3ncccc3F)c2)nc2cncc(C3CCC3)c12 [Example 210, {5-Cyclobutyl-2-[2-(3-fluoro-pyridin-2-ylamino)-pyridin-4-yl]-pyrido[3,4-d]pyrimidin-4-yl}-((S)-3,3-dimethyl-piperidin-4-yl)-amine]
pIC50: > 7.00

CC1(C)CNCC[C@@H]1Nc1nc(-c2ccnc(Nc3ncc(F)cc3F)c2)nc2cncc(C3CCC3)c12 [Example 211, {5-Cyclobutyl-2-[2-(3,5-difluoro-pyridin-2-ylamino)-pyridin-4-yl]-pyrido[3,4-d]pyrimidin-4-yl}-((S)-3,3-dimethyl-piperidin-4-yl)-amine]
pIC50: > 7.00

Cc1cc2c(-c3nc(N(C)[C@H]4CCNCC4(C)C)c4c(C5CC5)cncc4n3)ccnc2[nH]1 [Example 212, [5-Cyclopropyl-2-(2-methyl-1H-pyrrolo[2,3-b]pyridin-4-yl)-pyrido[3,4-d]pyrimidin-4-yl]-((S)-3,3-dimethyl-piperidin-4-yl)-methyl-amine]
pIC50: > 7.00

CN(c1nc(-c2ccnc3[nH]c(C(C)(C)C)cc23)nc2cncc(C3CCC3)c12)C1CCNCC1 [Example 213, [2-(2-tert-Butyl-1H-pyrrolo[2,3-b]pyridin-4-yl)-5-cyclobutyl-pyrido[3,4-d]pyrimidin-4-yl]-methyl-piperidin-4-yl-amine]
pIC50: > 7.00

NC1CCN(c2nc(-c3ccnc4[nH]c5ccccc5c34)nc3cncc(C4CCC4)c23)C1 (centres unmarked) [Example 214, 1-[5-Cyclobutyl-2-(9H-pyrido[2,3-b]indol-4-yl)-pyrido[3,4-d]pyrimidin-4-yl]-pyrrolidin-3-ylamine]
pIC50: > 7.00

FC(F)(F)c1cncc2nc(-c3ccnc4[nH]c5ccccc5c34)nc(N3CCNCC3)c12 [Example 215, 4-(4-Piperazin-1-yl-5-trifluoromethyl-pyrido[3,4-d]pyrimidin-2-yl)-9H-pyrido[2,3-b]indole]
pIC50: 6.00 to 7.00

FC(F)(F)c1cncc2nc(-c3ccnc4[nH]c5ccccc5c34)nc(N3CC[C@@H]4CNC[C@@H]43)c12 [Example 216, 4-((3R,6R)-4-Hexahydro-pyrrolo[3,4-b]pyrrol-1-yl-5-trifluoromethyl-pyrido[3,4-d]pyrimidin-2-yl)-9H-pyrido[2,3-b]indole]
pIC50: 6.00 to 7.00

CC1(C)CNCC[C@@H]1Nc1nc(-c2ccnc3[nH]c4ccccc4c23)nc2cncc(C(F)(F)F)c12 [Example 217, ((S)-3,3-Dimethyl-piperidin-4-yl)-[2-(9H-pyrido[2,3-b]indol-4-yl)-5-trifluoromethyl-pyrido[3,4-d]pyrimidin-4-yl]-amine]
pIC50: > 7.00

N[C@H]1C[C@@H](Nc2nc(-c3ccnc4[nH]c5ccccc5c34)nc3cncc(C(F)(F)F)c23)C1 [Example 218, cis-N-[2-(9H-Pyrido[2,3-b]indol-4-yl)-5-trifluoromethyl-pyrido[3,4-d]pyrimidin-4-yl]-cyclobutane-1,3-diamine]
pIC50: 6.00 to 7.00

OC1CNCCC(Nc2nc(-c3ccnc4[nH]c5ccccc5c34)nc3cncc(C(F)(F)F)c23)C1 (centres unmarked) [Example 219, 5-[2-(9H-Pyrido[2,3-b]indol-4-yl)-5-trifluoromethyl-pyrido[3,4-d]pyrimidin-4-ylamino]-azepan-3-ol]
pIC50: > 7.00
